# Results reported in ChEMBL document CHEMBL1667833, “Potent radiosensitizing agents: 5-methylselenyl- and 5-phenylselenyl-methyl-2'-deoxyuridine” (Bioorg Med Chem Lett, 2011).
# Legend:
# [1] = tested on: NCI-H460; assay: Cytotoxicity against human H460 cells assessed as cell viability after 72 hrs by calorimetric assay; type: functional, cell-based; conditions: NCI-H460, 72 h
# [2] = tested on: NCI-H460; assay: Potentiation of gamma-irradiation-induced cytotoxicity against human H460 cells assessed as dose enhancement ratio at 300 uM administered 24 hrs before 2-8 Gy irradiation measured after 12 days; type: functional
# [3] = tested on: NCI-H460; assay: Potentiation of gamma-irradiation-induced cytotoxicity against human H460 cells assessed as dose enhancement ratio at 50 uM administered 24 hrs before 2-8 Gy irradiation measured after 12 days; type: functional
SMILES,IC50 [1] [µM],Ratio [2],Ratio [3]
O=c1[nH]c(=O)n([C@H]2C[C@H](O)[C@@H](CO)O2)cc1C[Se]c1ccccc1,500,1.12,
C[Se]Cc1cn([C@H]2C[C@H](O)[C@@H](CO)O2)c(=O)[nH]c1=O,100,,1.2
